Experimental data as given in the NIST ThermoML archive (doi:10.1021/je060415l).
Several values for one entry are separate records, joined by “and”; a condition that tells them apart may be missing. Equal entries are not always repeated.

Test: isobaric coefficient of expansion
Conditions: Liquid, expansion method

CO [methanol]
Conditions	isobaric coefficient of expansion
196.17 K, 590 kPa	0.00112 1/K
196.97 K, 80030 kPa	0.000894 1/K
198.11 K, 590 kPa	0.00112 1/K
199.3 K, 80030 kPa	0.000894 1/K
200.13 K, 590 kPa	0.00112 1/K
201.61 K, 80030 kPa	0.000891 1/K
202.14 K, 590 kPa	0.00112 1/K and 0.00113 1/K
203.94 K, 80030 kPa	0.000891 1/K
204.09 K, 590 kPa	0.00112 1/K
206.06 K, 590 kPa	0.00112 1/K
206.3 K, 80030 kPa	0.000888 1/K
208.02 K, 590 kPa	0.00112 1/K
208.16 K, 20010 kPa	0.00105 1/K
208.68 K, 80030 kPa	0.000886 1/K
209.97 K, 590 kPa	0.00112 1/K and 0.00114 1/K
210.16 K, 20010 kPa	0.00104 1/K
210.17 K, 45100 kPa	0.000966 1/K
211.07 K, 80030 kPa	0.000883 1/K
211.93 K, 590 kPa	0.00111 1/K and 0.00112 1/K
212.17 K, 20010 kPa	0.00104 1/K
212.17 K, 45100 kPa	0.000968 1/K
213.46 K, 80030 kPa	0.00088 1/K
213.91 K, 590 kPa	0.00112 1/K and 0.00111 1/K
214.17 K, 20010 kPa	0.00104 1/K
214.17 K, 45100 kPa	0.000963 1/K
215.9 K, 590 kPa	0.00112 1/K
216 K, 80030 kPa	0.000874 1/K
216.17 K, 20010 kPa	0.00104 1/K
216.17 K, 45100 kPa	0.000964 1/K
217.87 K, 590 kPa	0.00112 1/K
218.17 K, 20010 kPa	0.00104 1/K
218.18 K, 45100 kPa	0.000965 1/K
218.19 K, 590 kPa	0.00111 1/K
219.84 K, 590 kPa	0.00112 1/K
220.16 K, 590 kPa	0.00113 1/K
220.18 K, 20010 kPa	0.00104 1/K
220.18 K, 45100 kPa	0.000962 1/K
220.38 K, 80030 kPa	0.000872 1/K
221.82 K, 590 kPa	0.00111 1/K
222.14 K, 590 kPa	0.00111 1/K
222.17 K, 20010 kPa	0.00104 1/K
222.18 K, 45100 kPa	0.000966 1/K
222.8 K, 80030 kPa	0.000867 1/K
223.82 K, 590 kPa	0.00112 1/K
224.15 K, 590 kPa	0.00111 1/K
224.17 K, 20010 kPa	0.00104 1/K
224.17 K, 45100 kPa	0.00096 1/K
225.25 K, 80030 kPa	0.000863 1/K
